#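 How tested: cells in 96-well plates exposed to compound for 48 hours at five concentrations. GI50 = concentration required for 50% inhibition of growth. TGI: total growth inhibition.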
# Experiments:
# Test in all cases: inhibition of tumour cell growth, NCI panel, 48 h
# 786-0 renal = test system: 786-0 renal
# A498 renal = test system: A498 renal
# A549 NSCLC = test system: A549 NSCLC
# ACHN renal = test system: ACHN renal
# BT-549 breast = test system: BT-549 breast
# CAKI-1 renal = test system: CAKI-1 renal
# COLO 205 colon = test system: COLO 205 colon
# DU-145 prostate = test system: DU-145 prostate
# EKVX NSCLC = test system: EKVX NSCLC
# HCC-2998 colon = test system: HCC-2998 colon
# HCT-116 colon = test system: HCT-116 colon
# HCT-15 colon = test system: HCT-15 colon
# HL-60(TB) leukemia = test system: HL-60(TB) leukemia
# HOP-62 NSCLC = test system: HOP-62 NSCLC
# HOP-92 NSCLC = test system: HOP-92 NSCLC
# HS 578T breast = test system: HS 578T breast
# HT29 colon = test system: HT29 colon
# IGROV1 ovarian = test system: IGROV1 ovarian
# KM12 colon = test system: KM12 colon
# LOX IMVI melanoma = test system: LOX IMVI melanoma
# M14 melanoma = test system: M14 melanoma
# MCF7 breast = test system: MCF7 breast
# MDA-MB-231 breast = test system: MDA-MB-231 breast
# MDA-MB-435 = test system: MDA-MB-435
# NCI-H226 lung = test system: NCI-H226 lung
# NCI-H460 lung = test system: NCI-H460 lung
# NCI-H522 lung = test system: NCI-H522 lung
# NCI/ADR-RES ovarian = test system: NCI/ADR-RES ovarian
# OVCAR-4 ovarian = test system: OVCAR-4 ovarian
# OVCAR-5 ovarian = test system: OVCAR-5 ovarian
# OVCAR-8 ovarian = test system: OVCAR-8 ovarian
# SF-295 CNS = test system: SF-295 CNS
# SF-539 CNS = test system: SF-539 CNS
# SK-MEL-2 melanoma = test system: SK-MEL-2 melanoma
# SK-MEL-28 melanoma = test system: SK-MEL-28 melanoma
# SK-MEL-5 melanoma = test system: SK-MEL-5 melanoma
# SK-OV-3 ovarian = test system: SK-OV-3 ovarian
# SN12C renal = test system: SN12C renal
# SNB-19 CNS = test system: SNB-19 CNS
# SNB-75 CNS = test system: SNB-75 CNS
# SW-620 colon = test system: SW-620 colon
# T-47D breast = test system: T-47D breast
# TK-10 renal = test system: TK-10 renal
# U251 CNS = test system: U251 CNS
# UACC-257 melanoma = test system: UACC-257 melanoma
# UACC-62 melanoma = test system: UACC-62 melanoma
# UO-31 renal = test system: UO-31 renal
structure (smiles),measurement,setting,value
Nc1nc(N)c2c(n1)NC(c1ccccc1)CC(c1ccc(Nc3nc(NCCO)nc(Nc4ccc(Cl)cc4)n3)cc1)=N2 (centres undefined),GI50,786-0 renal,1630 nM
same,TGI,786-0 renal,3080 nM
same,GI50,A498 renal,1540 nM
same,TGI,A498 renal,3030 nM
same,GI50,A549 NSCLC,2840 nM
same,TGI,A549 NSCLC,9180 nM
same,GI50,ACHN renal,1950 nM
same,TGI,ACHN renal,4360 nM
same,GI50,BT-549 breast,1770 nM
same,TGI,BT-549 breast,3200 nM
same,GI50,CAKI-1 renal,2300 nM
same,TGI,CAKI-1 renal,5790 nM
same,GI50,COLO 205 colon,1790 nM
same,TGI,COLO 205 colon,3310 nM
same,GI50,DU-145 prostate,1800 nM
same,TGI,DU-145 prostate,3380 nM
same,GI50,EKVX NSCLC,1640 nM
same,TGI,EKVX NSCLC,3170 nM
same,GI50,HCC-2998 colon,1680 nM
same,TGI,HCC-2998 colon,3100 nM
same,GI50,HCT-116 colon,1510 nM
same,TGI,HCT-116 colon,2840 nM
same,GI50,HCT-15 colon,1380 nM
same,TGI,HCT-15 colon,2840 nM
same,GI50,HL-60(TB) leukemia,319 nM
same,TGI,HL-60(TB) leukemia,1480 nM
same,GI50,HOP-62 NSCLC,1740 nM
same,TGI,HOP-62 NSCLC,3240 nM
same,GI50,HOP-92 NSCLC,1420 nM
same,TGI,HOP-92 NSCLC,3090 nM
same,GI50,HS 578T breast,1980 nM
same,TGI,HS 578T breast,5150 nM
same,GI50,HT29 colon,1770 nM
same,TGI,HT29 colon,3330 nM
same,GI50,IGROV1 ovarian,1560 nM
same,TGI,IGROV1 ovarian,3130 nM
same,GI50,KM12 colon,1900 nM
same,TGI,KM12 colon,3540 nM
same,GI50,LOX IMVI melanoma,1540 nM
same,TGI,LOX IMVI melanoma,2950 nM
same,GI50,M14 melanoma,1840 nM
same,TGI,M14 melanoma,3350 nM
same,GI50,MCF7 breast,1510 nM
same,TGI,MCF7 breast,3040 nM
same,GI50,MDA-MB-231 breast,1750 nM
same,TGI,MDA-MB-231 breast,3480 nM
same,GI50,MDA-MB-435,1740 nM
same,TGI,MDA-MB-435,3170 nM
same,GI50,NCI-H226 lung,11500 nM
same,TGI,NCI-H226 lung,31300 nM
same,GI50,NCI-H460 lung,1850 nM
same,TGI,NCI-H460 lung,3470 nM
same,GI50,NCI-H522 lung,1790 nM
same,TGI,NCI-H522 lung,3480 nM
same,GI50,NCI/ADR-RES ovarian,4330 nM
same,TGI,NCI/ADR-RES ovarian,> 100000 nM
same,GI50,OVCAR-4 ovarian,1720 nM
same,TGI,OVCAR-4 ovarian,3760 nM
same,GI50,OVCAR-5 ovarian,1940 nM
same,TGI,OVCAR-5 ovarian,3750 nM
same,GI50,OVCAR-8 ovarian,1460 nM
same,TGI,OVCAR-8 ovarian,3100 nM
same,GI50,SF-295 CNS,1570 nM
same,TGI,SF-295 CNS,2970 nM
same,GI50,SF-539 CNS,1600 nM
same,TGI,SF-539 CNS,3060 nM
same,GI50,SK-MEL-2 melanoma,1380 nM
same,TGI,SK-MEL-2 melanoma,2780 nM
same,GI50,SK-MEL-28 melanoma,1730 nM
same,TGI,SK-MEL-28 melanoma,3120 nM
same,GI50,SK-MEL-5 melanoma,1420 nM
same,TGI,SK-MEL-5 melanoma,2720 nM
same,GI50,SK-OV-3 ovarian,17700 nM
same,TGI,SK-OV-3 ovarian,32000 nM
same,GI50,SN12C renal,1740 nM
same,TGI,SN12C renal,3540 nM
same,GI50,SNB-19 CNS,1580 nM
same,TGI,SNB-19 CNS,2990 nM
same,GI50,SNB-75 CNS,1560 nM
same,TGI,SNB-75 CNS,3130 nM
same,GI50,SW-620 colon,1870 nM
same,TGI,SW-620 colon,3480 nM
same,GI50,T-47D breast,1520 nM
same,TGI,T-47D breast,3320 nM
same,GI50,TK-10 renal,2090 nM
same,TGI,TK-10 renal,3870 nM
same,GI50,U251 CNS,1530 nM
same,TGI,U251 CNS,2990 nM
same,GI50,UACC-257 melanoma,1900 nM
same,TGI,UACC-257 melanoma,3490 nM
same,GI50,UACC-62 melanoma,1840 nM
same,TGI,UACC-62 melanoma,3320 nM
same,GI50,UO-31 renal,1870 nM
same,TGI,UO-31 renal,4290 nM

# — PubChem BioAssay (NCI)
